Experimental data reported in patent US20200289521A1, “USE OF VITAMIN K IN COMBINATION WITH ANTICOAGULANTS” (KAYDENCE PHARMA AS, priority 2019, published 2020).

Experiments:
VSMCs [1] = assay: ATP increase in VSMCs, 24 hours (luminescence); format: cell-based; conditions: 10 μM
Description: This study was performed to determine if vitamin K2 (MK-7) affects ATP generation. ATP is generated via glycolysis in the cytoplasm and via both the Krebs-cycle and oxidative phosphorylation in the mitochondria. ATP generation via glycolysis delivers only 2 ATP, whereas ATP generation in the mitochondria generates some 32 ATP.
(§1) To perform this study, VSCMs (5000 cells/well) were plated in 96-well plates and left to adhere overnight. Next, cells were incubated for 24 hours with either vehicle, vitamin K2 (MK-7) (10 μM), or UQ10 (10 μM). Hoechst was added to correct for cell number (1 μg/mL). Next, ATP was measured using mammalian lysis buffer for 5 minutes after which 50 μL ATP substrate solution was added to the wells and incubated for 10 minutes in a dark environment. Finally, the medium was transferred to a white plate to measure luminescence

VSMCs [2] = assay: ATP increase in VSMCs, 48 hours, with CoCl2 arm (luminescence); format: cell-based
Description: as §1, with “This study was performed to further investigate the origin of ATP production that is influenced by vitamin K2 (MK-7). To” for “To”, “for 48” for “for 24”, “vehicle, CoCl2 (100 μM),” for “vehicle,”, “5 minutes,” for “5 minutes”, “Finally,” for “Finally, the”, “measure luminescence.” for “measure luminescence”

VSMCs [3] = assay: Hypoxia (CoCl2) induced oxidative stress in VSMCs (DCFDA); format: cell-based
Description: This study was performed to determine whether intracellular oxidative stress in VSCMs is derived from mitochondrial dysfunction. To perform this study, VSMCs were incubated with cobalt chloride, a known stabilizer of HIF1a. Cobalt chloride binding to HIF1a prevents the degradation of HIF1a and thus results in a cellular hypoxia state. HIF1a has been implicated in cancer biology as well as a number of other pathophysiologies, specifically in areas of vascularization and angiogenesis, energy metabolism, cell survival, and tumor invasion. Under normal circumstances, after injury, HIF1a is degraded by the enzyme prolyl hydroxylase (PHD). The continued up-regulation of HIF1a (mimicked by cobalt chloride) promotes tumor growth and metastasis through its role in initiating angiogenesis and regulating cellular metabolism to overcome hypoxia. Hypoxia promotes apoptosis in both normal and tumor cells. Additionally, hypoxia generates significant intracellular oxidative stress.
To perform the study, VSMCs (10,000 cells/well) were plated in a 96-well plate and left to adhere overnight. Next, the medium was changed to a medium supplemented with 50 μM CoCl2 for 19 hours. The next day, cells were washed and incubated for 1 hour with 20 μM DCFDA in the presence of a vehicle (solvent for CoCl2 and vitamin K2 (MK-7)/UQ10), 10 μM vitamin K2 (MK-7), or 10 μM UQ10 in medium. The medium was then changed to a medium supplemented with vehicle, vitamin K2 (MK-7)/UQ10, or CoCl2, and fluorescent was measured for 6 hours. Fluorescence intensity was normalized for cell count.

[4] = tested on: whole-blood thrombogenicity; assay: T-TAS Total Thrombus-formation Analysis of whole blood from treated Sprague-Dawley rats; format: in vivo; conditions: for AUC: area under flow pressure curve for 30 min, dabigatran 7.5, rivaroxaban 5.0, MK-7 1.5 mg/kg/day; for AUC / OT (time, min) / T10 (time, min): two weeks in diet; for OT (time, min) / T10 (time, min): dabigatran 7.5, rivaroxaban 5.0, vitamin K2 (MK-7) 1.5 mg/kg/day
Description: (§2) This experiment was conducted in order to evaluate the effects of vitamin K2 (MK-7) on the anticoagulant activity of the new oral anticoagulants (NOAC) rivaroxaban and dabigatran using the T-TAS Total Thrombus-formation Analysis System. The T-TAS Total Thrombus-formation Analysis System is a microchip-based flow chamber system capable of evaluating whole-blood thrombogenicity. It is a useful tool in monitoring the efficacy of anticoagulants on thrombus formation and predicting the risk of bleeding complications. To perform the study, 45 wild-type male Sprague-Dawley and 45 transgenic male Ren-2 rats [TGR(mREN-2)27] at the age of 10-11 weeks at the beginning of the treatment period were purchased from animal facility IKEM-CEM Institute of Clinical and Experimental Medicine (Prague, Czech Republic). All animals in the experiment were housed in individually ventilated cages (2-3 rats per cage) and kept in the animal rooms of JCET at a relative humidity of 55±10%, a temperature of 22±2° C., and a light cycle of 7 AM to 7 PM. The rats had free access to food and water. After delivery, animals were randomly divided into 10 experimental groups (5 or 10 rats per group), as indicated below in Table 1. Four days before the start of the treatment, the first part of animals' body weight and food intake was measured in selected representative three cages (rats n=9) to calculate the appropriate amount of tested compounds required for addition to the diet to obtain the dosing indicated in Table 1. It was estimated that food intake was approximately 30 g of chow per rat per day. The animals were fed for two weeks with AIN-93G diet supplemented with rivaroxaban or dabigatran with/without Vitamin K2 (MK-7), as indicated in Table 1. The animals were then anesthetized in order to draw blood samples for further analysis. The body mass of the rats was measured at the beginning and at the end of treatment. At the beginning and at the end of treatment, the food intake per day was measured in representative group of animals to monitor the daily dosing of tested compounds (per kg of body mass). The thrombus formation in vitro was measured in whole blood using a microchip-based flow chamber system according to manufacturers' protocol (Total Thrombus-formation Analyser System, T-TAS; Fujimori Kogyo Co., Ltd., Tokyo, Japan). For the analysis, citrated whole blood (480 μl) was mixed with 20 μl of 300 mM CaCl2 solution containing 1.25 mg/ml CTI (Corn Trypsin Inhibitor). […] The obtained flow pressure pattern for each sample was used to analyze thrombus formation based on the following estimated parameters: […]

[5] = tested on: whole-blood thrombogenicity; assay: T-TAS Total Thrombus-formation Analysis of whole blood from treated TGR rats; format: in vivo, transgenic Ren-2 rats [TGR(mREN-2)27]; conditions: for AUC: area under flow pressure curve for 30 min, dabigatran 7.5, rivaroxaban 5.0, MK-7 1.5 mg/kg/day; for AUC / OT (time, min) / T10 (time, min): two weeks in diet; for OT (time, min) / T10 (time, min): dabigatran 7.5, rivaroxaban 5.0, vitamin K2 (MK-7) 1.5 mg/kg/day
Description: as §2

VSMCs [6] = assay: Warfarin-induced oxidative stress in VSMCs, warfarin concentration series (DCFDA); format: cell-based; conditions: warfarin 10 to 100 μM, fluorescence over 6 hours
Description: It is known that the level of reactive oxygen species in cells can be measured by measuring the conversion of 2′,7′-dichlorofluorescein diacetate (DCFDA) to the fluorescent dye 2′,7′-dichlorofluorescein (DCF). The fluorescence generated by cells subjected to DCFDA is directly proportional to the amount of oxidized DCFDA to DCF.
In this study, vitamin K metabolism was blocked using the vitamin K-antagonist warfarin. The study was conducted to investigate whether interference with vitamin K metabolism would cause intracellular oxidative stress. To perform the study, VSMCs (10,000 cells/well) were plated in 96-well plates and left to adhere overnight. Next, cells were incubated for 1 hour with 20 μM DCFDA. The medium was then changed to a medium supplemented with different concentrations of warfarin ranging from 10 to 100 μM, and fluorescence intensity was measured over 6 hours. Fluorescence was normalized for number of cells.

[7] = tested on: human vascular smooth muscle cells (hVSMCs); assay: ATP measurement in hVSMCs with warfarin and/or vitamin K2 (luminescence); format: cell-based; conditions: 24 hours; warfarin 10 or 50 μM, vitamin K2 (MK-7) 10 μM
Description: This study was performed in order to determine the effect of vitamin K2 (MK-7) on warfarin-induced oxidative stress in muscles. To perform this study, human vascular smooth muscle cells (hVSMCs; 5,000 cells/well) were plated in 96-well dark plates and left to adhere overnight. Next, cells were incubated for 24 hours with either vehicle only (as blank control), warfarin (10 or 50 μM), vitamin K2 (MK-7) (10 μM), or a combination of warfarin (50 μM) and vitamin K2 (MK-7) (10 μM). Hoechst was added to correct for cell number (1 μg/mL). Next, ATP was measured using mammalian lysis buffer for 5 minutes after which 50 μL ATP substrate solution was added to the wells and incubated for 10 minutes in a dark environment. Finally, medium was transferred to a white plate to measure luminescence.

Compound | AUC [4] | OT (time, min) [4] [min] | T10 (time, min) [4] [min] | AUC [5] | OT (time, min) [5] [min] | T10 (time, min) [5] [min] | further results
COC1=C(OC)C(=O)C(C/C=C(\C)CC/C=C(\C)CC/C=C(\C)CC/C=C(\C)CC/C=C(\C)CC/C=C(\C)CC/C=C(\C)CC/C=C(\C)CC/C=C(\C)CCC=C(C)C)=C(C)C1=O [UQ10] |  |  |  |  |  |  | ATP production compared to the vehicle (VSMCs [1]): only vitamin K2 (MK-7) increased ATP production; ATP levels compared to CoCl2 (VSMCs [2]; 10 μM vs CoCl2 100 μM): significant higher ATP levels; hypoxia induced oxidative stress (VSMCs [3]; 50 μM CoCl2 for 19 hours, test substance 10 μM, 6 hours): This effect was not found
O=C(NC[C@H]1CN(c2ccc(N3CCOCC3=O)cc2)C(=O)O1)c1ccc(Cl)s1 [Rivaroxaban] | 2011 ± 28.7 | 6.133 ± 0.518 | 3.732 ± 0.266 | 1876 ± 91.28 | 8.324 ± 1.578 | 4.996 ± 0.8216 | thrombus formation ([4]; anticoagulant alone): inhibited thrombus formation; thrombus formation ([5]; anticoagulant alone): also inhibited thrombus formation
[Cl][Co][Cl] [CoCl2, cobalt chloride] |  |  |  |  |  |  | ATP production compared to vehicle (VSMCs [2]; CoCl2 100 μM, vitamin K2 (MK-7) 10 μM): decreased ATP production; oxidative stress induced by the hypoxia inducer (VSMCs [3]; 50 μM CoCl2): induces increased oxidative stress
CC(=O)CC(c1ccccc1)c1c(O)c2ccccc2oc1=O (stereo not drawn) [warfarin] |  |  |  |  |  |  | intracellular oxidative stress (VSMCs [6]): did cause intracellular oxidative stress; cell ATP / ATP generation [7]: does not affect ATP generation
[H]/N=C(/N)c1ccc(NCc2nc3cc(C(=O)N(CCC(=O)O)c4ccccn4)ccc3n2C)cc1 [Dabigatran] | 2039 ± 32.5 | 5.753 ± 0.587 | 3.386 ± 0.237 | 1898 ± 80.66 | 8.011 ± 1.317 | 4.780 ± 0.7073 | 
